Test results published in US5380759A, “Methyl N-[6-(3,4,5-trimethoxybenzloxy)imidazo[1,2-b]pyridazin-2-zyl]carbamate used to treat leukemia” (priority 1987, dated 1995).
Starred links: 1 amine or outer side, 2 acyl side, 3 side chain; linkers in the order of their positions; H or OH if unused. Positions of bridges follow the written chain, without caps; N, C: chain ends. Non-standard residues stand in square brackets, D forms with d. Residues, ends and D or L forms follow the SMILES beside them. Chains are numbered I, II in the order given. Actinocin(9to1) = Cc1c2oc3c(C)ccc(C(=O)[*:1])c3nc-2c(C(=O)[*:2])c(N)c1=O; NMeV = CN[C@H](C(=O)O)C(C)C; Sar = CNCC(=O)O

Tests used:
[1] = tested on: P388/ADR; experiment: In vivo activity against drug resistant tumour P388/ADR; parameters: species or system mouse; conditions: optimum dose 4.5 mg/kg
Procedure: (§1) CD2-F1 mice, of the same sex, weighing within a 3 gram range surrounding 20 g, are used for this test. Control and test animals are injected intraperitoneally with a suspension of 10^6 viable P388/O tumour cells on day 0. In each test several dose levels which bracket the LD20 for the compound are evaluated; each dose level group contains 6 animals. The test compounds are prepared either in physiologic saline containing 0.05% Tween 80 or distilled water containing 5% dextrose and are administered intraperitoneally on days 1,5 and 9 relative to tumour implant. Doses are on a mg/kg basis according to individual animals' body weights. The day of death for each animal is recorded and the median day of death identified for each group. The difference between the median survival time for treated and control groups is expressed as a percentage increase in life span (% ILS).
(§2) E. Activity Against Drug-Resistant Tumours
(§3) Using a similar procedure to the Lymphocytic Leukaemia P388/O test, the compound of Example 1 was evaluated against P388/O tumours which had been made resistant to the following standard, clinically used anti-tumour agents: […]

[2] = tested on: P388/ActD; experiment: In vivo activity against drug resistant tumour P388/ActD; parameters: species or system mouse; conditions: optimum dose 0.5 mg/kg
Procedure: as §1, §2, §3

[3] = tested on: P388/BCNU; experiment: In vivo activity against drug resistant tumour P388/BCNU; parameters: species or system mouse; conditions: optimum dose 2.0 mg/kg
Procedure: as §1, §2
Using a similar procedure to the Lymphocytic Leukaemia P388/O test, the compound of Example 1 was evaluated against P388/O tumours which had been made resistant to the following standard, clinically used anti-tumour agents:
bis-chloronitrosourea (BCNU)

[4] = tested on: P388/Cis--Pt; experiment: In vivo activity against drug resistant tumour P388/Cis-Pt; parameters: species or system mouse; conditions: optimum dose 5.3 mg/kg
[5] = tested on: tubulin; experiment: Turbidimetric assay of tubulin polymerisation; type: biochemical, horse; conditions: 37° C., increase in A350nm 10 min after lag phase; read-out: Total tubulin polymerisation IC50
Procedure: A) Tubulin Polymerisation Assay
1. Preparation of tubulin
All manipulations are performed at 4° C. unless otherwise specified. The horse brain is washed in ice-cold BBG buffer and superficial meninges and blood vessels removed. After weighing, cerebral cortices are chopped, homogenised in 75 ml BBG buffer/100 g brain, centrifuged at 6500 g for 15 min and after removal of […], re-centrifuged at 100,000 g for 75 min. The volume of the supernatant (Vml) is measured and V/10 ml 10 mM GTP (Li salt) in H2 O added. The mixture is incubated in sealed centrifuge tubes (30 min, 34° C.) in a shaking water bath to polymerise the tubulin. After polymerisation the tubes are balanced and centrifuged at 100,000 g, (1 h at 27° C.) in a pre-warmed rotor. The high-speed pellet is resuspended in V/4 ml BB buffer and the preparation stirred on ice for 30 min and centrifuged at 100,000 g (1 h at 4° C.) to remove the cold-stable microtubules. An equal volume of BB2G buffer is added to the supernatant which is frozen rapidly in 5 ml samples in plastic weighing dishes floated on a solid CO2 /ethanol slurry, and stored overnight at -80° C. After ca. 18 hours the frozen samples of tubulin are thawed, 10 mM GTP in H2 O added to give a final concentration of 1 mM, and the new volume (Wml), is measured. The polymerisation/depolymerisation cycle is repeated exactly as above but substituting W for V to give twice-cycled tubulin.
2. Turbidimetric Assay of Tubulin Polymerisation
Apparatus: recording spectrophotometer with a 6-position, thermostatted cuvette holder; full scale deflection=0.2 absorbance units.
In a 1 ml spectrophotometer cuvette are mixed 100 μl 10 mM GTP (Li salt) made up in BB buffer, 10 μl H2 O or DMSO-depending on selected drug solvent, BB buffer and tubulin preparation such that the final increase in A350nm is 0.15 units after 16 mins (approx. 100 μl of tubulin prep. or 2.5 mg protein) in a final volume of 1 ml at 37° C. All reagents are stored on ice.
Polymerisation is initiated by raising the temperature to 37° C. and the increase in A350nm of triplicate samples against a reference cuvette is recorded. The reference sample includes a similar incubation mixture either without tubulin or with the addition of 1 mM Ca^2+. The increase over initial A350nm 10 min after the completion of lag phase (control polymerisation is 80% complete within this time) is calculated and expressed as a percentage of the control value, for a range of drug concentrations. The drug concentration required to give a 50% change (IC50) in the control value is determined.

[6] = tested on: P388 D1 cells; experiment: P388 D1 colony-forming assay; type: cell-based; conditions: Mus musculus, P388D1; 24 h exposure, 14 days colony growth; read-out: IC50 colony formation
Procedure: B) P338D1 Colony-forming Assay
In this assay, cells from an in vitro-adapted line of the mouse lymphoid neoplasm, P388 are first exposed to serially diluted concentrations of test compound over a 24 hour period in culture. Thereafter, the ability of such treated cells to form discrete colonies over a 14 day period after resuspension in a semi-solid drug-free medium is determined.
Initially cells in log growth are plated into individual 25 cm^2 tissue culture flasks each containing a final volume of 5 mls of Hepes buffered RPMI 1640 culture medium supplemented with 10 percent foetal calf serum, antibiotics and test compound. All compounds are formulated initially at appropriate concentrations in DMSO, 25 microliters of which is then added to each flask. All compounds are evaluated at concentrations ranging serially in four fold decrements from a top concentration some four fold greater than that already known to inhibit the proliferation of these cells by about 80 to 90 percent in the primary proliferative assay.
After 24 hrs exposure to the test compound the cells are counted and a known number of live cells transferred to a 15 ml centrifuge tube to which 4 mls of a 0.25 percent low temperature gelling agarose solution in complete RPMI tissue culture medium is then added. After 13 days incubation at 37° C., 1 ml of 1% p-Iodonitrotetrazolium violet is added to the top of each tube and allowed to permeate through the agarose for a further 24 to 48 hrs. This dye is metabolised by living cells to produce an insoluble red crystalline product which facilitates counting of the colonies. Samples are taken from each tube and the number of colonies containing a minimum of 50 cells is determined. The concentration of compound necessary to inhibit colony formation by 50 percent relative to that of control cells incubated under identical conditions but in the absence of the test compound is determined.

[7] = tested on: P388/O tumour; experiment: Lymphocytic leukaemia P388/O test; type: in vivo, mouse; conditions: Mus musculus, P388, ip
Procedure: C. Lymphocytic Leukemia P388/O Test
as §1

[8] = LD20 (Mouse); type: in vivo; conditions: i.p. days 1, 5 and 9, CD2-F1 mice, observed up to 14 days
[9] = tested on: DLD-1 human colon carcinoma cells; experiment: In vitro activity against human tumour cell line DLD-1 (proliferation); type: cell-based; conditions: DLD-1, 96 h, methylene blue, read-out: IC50
Procedure: (§4) Cells from the human tumour cell lines DLD-1, HCT-116, WiDr and A549 are exposed to serially diluted concentrations of test compounds over a 96 hour period in culture. The ability of such cells to proliferate over the test period is determined.
(§5) Cells in log growth are plated into 96 well multiwell tissue culture dishes in 100 μl/well of RPMI 1640 culture medium supplemented with 10% foetal calf serum, antibiotics and test compound. All compounds are formulated initially at appropriate concentrations in DMSO, the final concentrations in this solvent being twenty times that required in the plate. A final 1 in 10 dilution in complete medium is then made before adding 100 μl to each well of the plate. All compounds are evaluated at concentrations ranging serially in four fold decrements from a top concentration some four fold greater than that already known to inhibit the proliferation of cells from the mouse lymphoid neoplasm, P388D1 by about 80 to 90 percent in a primary proliferative assay.
(§6) After 96 hours the proliferation of cells exposed to test compound is compared with control untreated cells by one of two methods:
a) Culture supernatants are aspirated and cells fixed and stained by adding a solution of methylene blue (5 g per liter of 50% ethanol: water, 100 μl/well). After 30 minutes at room temperature unbound stain is washed off by immersing plates in water. Stained cells are solubilised overnight using 1% Sarkosyl (Sigma) in phosphate-buffered saline (100 μl/well). Absorbances are read by an ELISA plate spectrophotometer at a wavelength of 620 nm. The IC50 is defined as that concentration of drug which decreases absorbance to 50% of that in control (drug-free) cultures. This method is used for the DLD-1 cell line.

[10] = tested on: WiDr human colon adenocarcinoma cells; experiment: In vitro activity against human tumour cell line WiDr (proliferation); type: cell-based; conditions: 96 h, MTT, read-out: IC50
Procedure: as §4, §5, §6
(§7) b) 20 μl of MTT (5 mg/ml in PBS) is added to each well. After an incubation period of 4 hours the medium from each well is aspirated and replaced with 200 μl DMSO to dissolve the formazan crystals formed. Absorbances are read by an ELISA plate spectrophotometer at a wavelength of 540 nm. The IC50 is defined as that concentration of drug which decreases absorbance to 50% of that in control (drug-free) cultures. This method is used for the WiDr, HCT-116 and A549 cell lines.

[11] = tested on: HCT-116 human colon carcinoma cells; experiment: In vitro activity against human tumour cell line HCT-116 (proliferation); type: cell-based; conditions: HCT-116, 96 h, MTT, read-out: IC50
Procedure: as §4, §5, §6, §7

[12] = tested on: A549 human lung carcinoma cells; experiment: In vitro activity against human tumour cell line A549 (proliferation); type: cell-based; conditions: A549, 96 h, MTT, read-out: IC50
Procedure: as §4, §5, §6, §7

[13] = tested on: P388/MTX; experiment: In vivo activity against drug resistant tumour P388/MTX; parameters: species or system mouse; conditions: optimum dose 3.0 mg/kg
Procedure: as §1, §2, §3

[14] = tested on: microtubule function; conditions: cited from earlier work

Compound: COc1cccc2c1C(=O)c1c(O)c3c(c(O)c1C2=O)C[C@@](O)(C(=O)CO)C[C@@H]3O[C@H]1C[C@H](N)[C@H](O)[C@H](C)O1 [ADR, adriamycin, reference compound]
- 60 Day Survivors [1]: 0/6
- % ILS [1]: +27%

Compound: Cc1c2oc3c(C)ccc(C(=O)N[C@@H]4C(=O)N[C@H](C(C)C)C(=O)N5CCC[C@H]5C(=O)N(C)CC(=O)N(C)[C@@H](C(C)C)C(=O)O[C@@H]4C)c3nc-2c(C(=O)N[C@@H]2C(=O)N[C@H](C(C)C)C(=O)N3CCC[C@H]3C(=O)N(C)CC(=O)N(C)[C@@H](C(C)C)C(=O)O[C@@H]2C)c(N)c1=O [ActD, actinomycin D, reference compound] (I: T[dV]P[Sar][NMeV] / II: T[dV]P[Sar][NMeV]; ester I:1-I:C, II:1-II:C; linker I:N-II:N via Actinocin(9to1))
- 60 Day Survivors [2]: 0/6
- % ILS [2]: +27%

Compound: O=NN(CCCl)C(=O)NCCCl [BCNU, bis-chloronitrosourea, reference compound]
- 60 Day Survivors [3]: 0/6
- % ILS [3]: +36%

Compound: N.N.[Cl][Pt][Cl] [Cis--Pt, Cis-platinum, reference compound]
- 60 Day Survivors [4]: 0/6
- % ILS [4]: +21%

Compound: CCCCOC(=O)Nc1cn2nc(OCc3cc(OC)c(OC)c(OC)c3)ccc2n1 [Example 5, n-Butyl N-[6-(3,4,5-trimethoxybenzyloxy)imidazo[1,2-b]pyridazin-2-yl]carbamate]
- IC50 [5]: 0.49 µM
- IC50 [6]: 0.0126 µM
- ILS at 150 mg/kg ([7]; 150 mg/kg i.p. days 1, 5 and 9): 61%
- LD50 [8]: 140 mg/kg
- IC50 [9]: 0.00734 µM
- IC50 [10]: 0.00365 µM
- IC50 [11]: 0.0033 µM
- IC50 [12]: 0.00436 µM

Compound: CCOC(=O)Nc1cn2nc(OCc3cc(OC)c(OC)c(OC)c3)ccc2n1 [Example 7, Ethyl N-[6-(3,4,5-trimethoxybenzyloxy)imidazo[1,2-b]pyridazin-2-yl]carbamate]
- IC50 [5]: 0.52 µM
- IC50 [6]: 0.00634 µM
- ILS at 5 mg/kg ([7]; 5 mg/kg i.p. days 1, 5 and 9): 111%
- LD50 [8]: 15 mg/kg
- IC50 [9]: 0.00592 µM
- IC50 [10]: 0.0197 µM
- IC50 [11]: 0.00825 µM
- IC50 [12]: 0.0224 µM

Compound: COCCOC(=O)Nc1cn2nc(OCc3cc(OC)c(OC)c(OC)c3)ccc2n1 [Example 8, 2-Methoxyethyl N-[6-(3,4,5-trimethoxybenzyloxy)imidazo[1,2-b]pyridazin-2-yl]carbamate]
- IC50 [5]: 0.23 µM
- IC50 [6]: 0.00293 µM
- ILS at 10 mg/kg ([7]; 10 mg/kg i.p. days 1, 5 and 9): 44%
- LD50 [8]: 15 mg/kg
- IC50 [9]: 0.00882 µM
- IC50 [10]: 0.041 µM
- IC50 [11]: 0.0205 µM
- IC50 [12]: 0.039 µM

Compound: CN(Cc1cnc2nc(N)nc(N)c2n1)c1ccc(C(=O)N[C@@H](CCC(=O)O)C(=O)O)cc1 [MTX, methotrexate, reference compound]
- 60 Day Survivors [13]: 0/6
- % ILS [13]: +15%

Compound: CCOC(=O)Nc1cc2c(c(N)n1)N=C(CN(C)c1ccccc1)CN2 [NSC-181928]
- microtubule inhibitory activity [14]: microtubule inhibitory activity

Compound: COC(=O)Nc1nc2ccc(C(=O)c3cccs3)cc2[nH]1 [nocodazole]
- microtubule inhibitory activity [14]: microtubule inhibitory activity

Compound: CCOC(=O)Nc1ccc(SCC2COC(Cn3ccnc3)(c3ccc(Cl)cc3Cl)O2)cc1 (stereo not shown) [tubulazole]
- microtubule inhibitory activity [14]: microtubule inhibitory activity
